Results: patent US9963461B2, “Phillygenin ibuprofen ester, preparation method therefor, and application thereof” (priority 2014, dated 2018)
Marks after values point to notes of the source that are not given here.

Experiments:
[1] = system: Herpes Simplex Virus type I (HSV-1); assay: Impact of the drugs on the virus-induced cytopathy (MTT); type: cell-based; conditions: HSV-I 100 TCID50, Vero cells, about the maximal non-cytotoxic concentration, 72 hours
[2] = system: respiratory syncytial virus (RSV); assay: as above; type: cell-based; conditions: RSV 100 TCID50, Vero cells, about the maximal non-cytotoxic concentration, 72 hours
Adenovirus (AdV) = assay: as above; type: cell-based; conditions: ADV 100 TCID50, Vero cells, about the maximal non-cytotoxic concentration, 72 hours
parainfluenza virus [3] = type: in vivo, Kunming mice; conditions: lung suspensions, parainfluenza virus infected mice; 19.5 mg/kg/d, 5 days
[4] = system: coxsackie virus B3 (CVB3); assay: Impact of the drugs on the virus-induced cytopathy (MTT); type: cell-based; conditions: CVB3 100 TCID50, Vero cells, about the maximal non-cytotoxic concentration, 72 hours
influenza virus [5] = type: in vivo, Kunming mice; conditions: lung suspensions, influenza virus infected mice; 19.5 mg/kg/d, 5 days
influenza virus [6] = type: in vivo, Kunming mice; conditions: influenza virus infected mice; 19.5 mg/kg/d intragastric, 5 days
influenza virus [7] = assay: Impact of the drugs on the virus-induced cytopathy (MTT); type: cell-based; conditions: influenza virus 100 TCID50, Vero cells, about the maximal non-cytotoxic concentration, 72 hours
Vero cell = assay: Cytotoxicity test on Vero cell (MTT); conditions: 72 hours
parainfluenza virus [8] = assay: Impact of the drugs on the virus-induced cytopathy (MTT); type: cell-based; conditions: parainfluenza virus 100 TCID50, Vero cells, about the maximal non-cytotoxic concentration, 72 hours
Enterovirus EV71 = assay: as above; type: cell-based; conditions: EV71 100 TCID50, Vero cells, about the maximal non-cytotoxic concentration, 72 hours
parainfluenza virus [9] = type: in vivo, Kunming mice; conditions: parainfluenza virus infected mice; 19.5 mg/kg/d intragastric, 5 days
[10] = system: Coxsackie virus A16 (CoxA16); assay: Impact of the drugs on the virus-induced cytopathy (MTT); type: cell-based; conditions: CoxA16 100 TCID50, Vero cells, about the maximal non-cytotoxic concentration, 72 hours

With `CCOC(=O)C1=C[C@@H](OC(CC)CC)[C@H](NC(C)=O)[C@@H](N)C1` [Oseltamivir phosphate, oseltamivir phosphate] the “antiviral effective rate (ER %)” value [1] was 66.56** %, the “antiviral effective rate (ER %)” value [2] was 37.60% and the “antiviral effective rate (ER %)” value (Adenovirus (AdV)) was 10.31%. For the same compound, the “Hemagglutination titer (InX)” value (parainfluenza virus [3]) was 22.05 ± 1.055, the “Hemagglutination titer Inhibitive rate (%)” value (parainfluenza virus [3]) was 33.44% and the “antiviral effective rate (ER %)” value [4] was 1.64%. For the same compound, the “Hemagglutination titer (InX)” value (influenza virus [5]) was 20.50 ± 1.122, the “Hemagglutination titer Inhibitive rate (%)” value (influenza virus [5]) was 36.73% and the “Lung index (X ± S)” value (influenza virus [6]) was 1.178 ± 0.066. The “Lung index Inhibitive rate (%)” value (influenza virus [6]) was 19.84%, the “antiviral effective rate (ER %)” value (influenza virus [7]) was 81.76** % and the “Median toxic concentration (TC50)” value (Vero cell) was 0.832 g/L. For the same compound, the “maximal non-toxic concentration (TC0)” value (Vero cell) was 0.28 g/L, the “antiviral effective rate (ER %)” value (parainfluenza virus [8]) was 94.52** % and the “antiviral effective rate (ER %)” value (Enterovirus EV71) was 51.86%. For the same compound, the “Lung index (X ± S)” value (parainfluenza virus [9]) was 1.243 ± 0.052, the “Lung index Inhibitive rate (%)” value (parainfluenza virus [9]) was 21.85% and the “antiviral effective rate (ER %)” value [10] was 2.95%.
